Results published in US20170166555A1, “FUNCTIONALISED AND SUBSTITUTED INDOLES AS ANTI-CANCER AGENTS” (Novogen Limited, priority 2013, published 2017).
Where two headings read alike, the source gives them in different places.

What was measured:
Assay in all cases: Anti-proliferative assay, cell-titre luminescent reagent, 72 h (GVK-BIO)
Assay type in all cases: cell-based
SK-Mel-28 melanoma cells = conditions: Homo sapiens
Method: (§1) The ability of compounds 4001, 4002, 4008, 4010, 4011, 4013-4015, 4018, 4026, 4045-4113 and 4115-4127 to inhibit the proliferation of cancer cells representative of neuroblastoma, melanoma, prostate cancer, colorectal cancer, non-small cell lung carcinoma, and triple negative breast cancer was assessed. These studies were conducted by contract research (GVK-BIO). Briefly, a pre-determined number of cells as calculated from cell growth assays for each of the cell lines employed were seeded into their respective culture medium (using ATCC culture parameters—http://www.atcc.org) and cultured for 24 h at 37° C. and 5% CO2 in 96-well culture plates. Once attached, each cell line was then exposed to various concentrations of each respective analogue (30, 3, 0.3 and 0.03 μM for compounds in Tables 2, 3 and 4; 30, 10, 3, 1, 0.3 and 0.1 μM for compounds in Table 5), cultured for a further 72 h and exposed to cell-titre luminescent reagent (100 μL/well) for a further 30 min). Luminescence was captured using an EnVision multilabel reader and the data for each analogue concentration compared against no treatment control. For compounds in Tables 2-4, semi-log plots of Percent of Control versus concentration were prepared and IC50 determined using linear regression analysis. For compounds in Table 5, cell viability was normalized to control (vehicle alone) and dose-response curves, and half maximal effective concentration (EC50) values were determined using Graph Pad Prism 6 (nonlinear regression sigmoidal dose-response variable slope).

[1] = tested on: CaCo2 colorectal cancer cells; conditions: Homo sapiens
Method: as §1

[2] = tested on: DU145 prostate cancer cells; conditions: Homo sapiens
Method: as §1

[3] = tested on: A549 non-small cell lung carcinoma cells; conditions: Homo sapiens, read-out: IC50/μM Lung (NSLC) A549
Method: as §1

[4] = tested on: MDA-MB-231 triple negative breast cancer cells; conditions: Homo sapiens
Method: as §1

[5] = tested on: SK-N-SH neuroblastoma cells; conditions: Homo sapiens
Method: as §1

[6] = tested on: PC3 prostate cancer cells
Method: as §1

[7] = SK-MEL-28, 72 h, 30, 3, 0.3 and 0.03 μM, linear regression (Tables 2-4)
[8] = Caco-2, 72 h, 30, 3, 0.3 and 0.03 μM, linear regression (Tables 2-4)
[9] = DU-145, 72 h, 30, 3, 0.3 and 0.03 μM, linear regression (Tables 2-4)
[10] = A549, 72 h, 30, 3, 0.3 and 0.03 μM, linear regression (Tables 2-4)
[11] = MDA-MB-231, 72 h, 30, 3, 0.3 and 0.03 μM, linear regression (Tables 2-4)
[12] = SK-N-SH, 30, 3, 0.3 and 0.03 μM, linear regression (Tables 2-4)
[13] = 30, 3, 0.3 and 0.03 μM, linear regression (Tables 2-4)
[14] = SK-MEL-28, 72 h, 30, 10, 3, 1, 0.3 and 0.1 μM, nonlinear regression (Table 5)
[15] = Caco-2, 72 h, 30, 10, 3, 1, 0.3 and 0.1 μM, nonlinear regression (Table 5)
[16] = DU-145, 72 h, 30, 10, 3, 1, 0.3 and 0.1 μM, nonlinear regression (Table 5)
[17] = A549, 72 h, 30, 10, 3, 1, 0.3 and 0.1 μM, nonlinear regression (Table 5)
[18] = MDA-MB-231, 72 h, 30, 10, 3, 1, 0.3 and 0.1 μM, nonlinear regression (Table 5)
[19] = SK-N-SH, 30, 10, 3, 1, 0.3 and 0.1 μM, nonlinear regression (Table 5)
[20] = 30, 10, 3, 1, 0.3 and 0.1 μM, nonlinear regression (Table 5)

Row | Compound | IC50 (SK-Mel-28 melanoma cells; [7]) [µM] | IC50 [1, 8] [µM] | IC50 [2, 9] [µM] | IC50 [3, 10] [µM] | IC50 [4, 11] [µM] | IC50 [5, 12] [µM] | IC50 [6, 13] [µM] | IC50 (SK-Mel-28 melanoma cells; [14]) [µM] | IC50 [1, 15] [µM] | IC50 [2, 16] [µM] | IC50 [3, 17] [µM] | IC50 [4, 18] [µM] | IC50 [5, 19] [µM] | IC50 [6, 20] [µM]
1 | Cc1c(C)n(CCCN(C)C)c2ccc(Nc3ccc(C(=O)Nc4ccc5c(c4)OCO5)cc3)cc12 [Compound 4106, N-(benzo[d][1,3]dioxol-5-yl)-4-((1-(3-(dimethylamino)propyl)-2,3-dimethyl-1H-indol-5-yl)amino)benzamide] | 2.6 | 2.8 | 3.1 | 2.4 | 1.9 | 1.8 | 3.6 |  |  |  |  |  |  | 
2 | CN(C)CCCn1ccc2cc(Oc3ccc(C(=O)Nc4cccc(F)c4)cc3)ccc21 [Compound 4091, 4-((1-(3-(dimethylamino)propyl)-1H-indol-5-yl)oxy)-N-(3-fluorophenyl)benzamide] |  |  |  |  |  |  |  | 15.4 | 10.2 | 10.6 | 9.5 | 28.9 | 9.7 | 19.6
3 | COc1ccc(NC(=O)c2cccc(Nc3ccc4c(c3)c(C)c(C)n4CCCN(C)C)c2)cc1 [Compound 4073, 3-((1-(3-(dimethylamino)propyl)-2,3-dimethyl-1H-indol-5-yl)amino)-N-(4-methoxyphenyl)benzamide] | 3.1 | 2.8 | 4 | 3.9 | 3.4 | 2.6 | 4.2 |  |  |  |  |  |  | 
4 | Cc1c(C)n(CCCN2CCN(C)CC2)c2ccc(C(=O)N3CCN(CCc4cccc(F)c4)CC3)cc12 [Compound 4124, (2,3-dimethyl-1-(3-(4-methyl piperazin-1-yl)propyl)-1H-indol-5-yl)(4-(3-fluorophenethyl)piperazin-1-yl)methanone] | 15.9 | 29.6 | > 30 | 15 | 13.9 | 10.9 | 21.8 |  |  |  |  |  |  | 
5 | COc1ccc(NC(=O)c2cccc(Cc3ccc4c(c3)c(C)c(C)n4CCCN(C)C)c2)cc1 [Compound 4051] | 3.4 | 16.1 | 4.9 | 4.1 | 4.5 | 4.3 | 17.3 |  |  |  |  |  |  | 
6 | COc1cccc(NC(=O)c2cccc(Nc3ccc4c(c3)c(C)c(C)n4CCCN(C)C)c2)c1 [Compound 4076, 3-((1-(3-(dimethylamino)propyl)-2,3-dimethyl-1H-indol-5-yl)amino)-N-(3-methoxyphenyl)benzamide] | 2.1 | 2.9 | 3.2 | 1.8 | 1.7 | 2.8 | 3.7 |  |  |  |  |  |  | 
7 | CN(C)CCCn1ccc2cc(Nc3cccc(C(=O)Nc4ccc5c(c4)OCO5)c3)ccc21 [Compound 4069, N-(benzo[d][1,3]dioxol-5-yl)-3-((1-(3-(dimethylamino)propyl)-1H-indol-5-yl)amino)benzamide] | 2.5 | > 30 | 4.4 | 4.2 | 4.2 | 3.4 | 9.9 |  |  |  |  |  |  | 
8 | COc1cccc(NC(=O)c2ccc(Oc3ccc4c(c3)c(C)c(C)n4CCCN(C)C)cc2)c1 [Compound 4097, 4-((1-(3-(dimethylamino)propyl)-2,3-dimethyl-1H-indol-5-yl)oxy)-N-(3-methoxyphenyl)benzamide] | 3.6 | 3.5 | 3.5 | 3 | 2.5 | 2.9 | 4.9 |  |  |  |  |  |  | 
9 | CN(C)CCCn1ccc2cc(Nc3ccc(C(=O)Nc4ccc5c(c4)OCO5)cc3)ccc21 [Compound 4101, N-(benzo[d][1,3]dioxol-5-yl)-4-((1-(3-(dimethylamino)propyl)-1H-indol-5-yl)amino)benzamide] | 3.3 | > 30 | 5.2 | 4 | 3.9 | 3.4 | 7.8 |  |  |  |  |  |  | 
10 | COc1ccc(NC(=O)c2cccc(Oc3ccc4c(ccn4CCCN(C)C)c3)c2)cc1 [Compound 4057, 3-((1-(3-(dimethylamino)propyl)-1H-indol-5-yl)oxy)-N-(4-methoxyphenyl)benzamide] | 2.7 | 10.3 | 6.4 | 4.4 | 3 | 4.9 | 8.7 |  |  |  |  |  |  | 
11 | Cc1c(C)n(CCCN(C)C)c2ccc(Oc3cccc(C(=O)Nc4ccccc4)c3)cc12 [Compound 4066, 3-((1-(3-(dimethylamino)propyl)-2,3-dimethyl-1H-indol-5-yl)oxy)-N-phenylbenzamide] |  |  |  |  |  |  |  | 4.9 | 14.8 | 6.9 | 8.5 | 11.4 | 5.4 | 10
12 | CN(C)CCCn1ccc2cc(Cc3ccc(C(=O)Nc4cccc(F)c4)cc3)ccc21 [Compound 4080, 4-((1-(3-(dimethylamino)propyl)-1H-indol-5-yl)methyl)-N-(3-fluorophenyl)benzamide] | 3.1 | 3 | 3.5 | 3.1 | 3.2 | 2.8 | 3 |  |  |  |  |  |  | 
13 | COc1ccc(NC(=O)c2cccc(Oc3ccc4c(c3)c(C)c(C)n4CCCN(C)C)c2)cc1 [Compound 4062] | 4.3 | 6 | 4.4 | 2.3 | 3.7 | 4.8 | 9 |  |  |  |  |  |  | 
14 | Cc1c(C)n(CCCN(C)C)c2ccc(Oc3ccc(C(=O)Nc4ccccc4)cc3)cc12 [Compound 4098, 4-((1-(3-(dimethylamino)propyl)-2,3-dimethyl-1H-indol-5-yl)oxy)-N-phenylbenzamide] | 3.8 | 4 | 3.4 | 2.9 | 3.7 | 3.4 | 3.3 |  |  |  |  |  |  | 
15 | CN(C)CCCn1ccc2cc(Nc3ccc(C(=O)Nc4cccc(F)c4)cc3)ccc21 [Compound 4102, 4-((1-(3-(dimethylamino)propyl)-1H-indol-5-yl)amino)-N-(3-fluorophenyl)benzamide] | 3.5 | > 30 | 6 | 4 | 3.6 | 3.5 | 5.5 |  |  |  |  |  |  | 
16 | Cc1c(C)n(CCCN(C)C)c2ccc(Cc3ccc(C(=O)Nc4ccc(F)cc4)cc3)cc12 [Compound 4082, 4-((1-(3-(dimethylamino)propyl)-2,3-dimethyl-1H-indol-5-yl)methyl)-N-(4-fluorophenyl)benzamide] |  |  |  |  |  |  |  | 4.6 | 4 | 2.6 | 4.9 | 4.2 | 4.8 | 3.9
17 | Cc1c(C)n(CCCN2CCN(C)CC2)c2ccc(CN3CCN(CCc4ccc(F)cc4)CC3)cc12 [Compound 4110, 5-((4-(4-fluorophenethyl)piperazin-1-yl)methyl)-2,3-dimethyl-1-(3-(4-methylpiperazin-1-yl)propyl)-1H-indole] |  |  |  |  |  |  |  | 4.4 | 12.9 | 22.7 | 33.2 | 6.9 | 4.2 | 17.7
18 | CN(C)CCCn1ccc2cc(Oc3cccc(C(=O)Nc4ccc(F)cc4)c3)ccc21 [Compound 4056, 3-((1-(3-(dimethylamino)propyl)-1H-indol-5-yl)oxy)-N-(4-fluorophenyl)benzamide] | 3.4 | 4.7 | 4.3 | 4 | 3 | 3.4 | 7 |  |  |  |  |  |  | 
19 | COc1cccc(NC(=O)c2ccc(Nc3ccc4c(c3)c(C)c(C)n4CCCN(C)C)cc2)c1 [Compound 4108, 4-((1-(3-(dimethylamino)propyl)-2,3-dimethyl-1H-indol-5-yl)amino)-N-(3-methoxyphenyl)benzamide] | 2.9 | 2.1 | 3.5 | 3.4 | 2.2 | 2.9 | 3.6 |  |  |  |  |  |  | 
